According to EP4810040A2, “INHIBITORS OF APOL1 AND METHODS OF USING SAME” (priority 2020, dated 2022):

Biological target: T1, APOL1 G1 (Homo sapiens, UniProt O14791, I384M/S342G)
T1 sequence (O14791 28-398 S342G/I384M): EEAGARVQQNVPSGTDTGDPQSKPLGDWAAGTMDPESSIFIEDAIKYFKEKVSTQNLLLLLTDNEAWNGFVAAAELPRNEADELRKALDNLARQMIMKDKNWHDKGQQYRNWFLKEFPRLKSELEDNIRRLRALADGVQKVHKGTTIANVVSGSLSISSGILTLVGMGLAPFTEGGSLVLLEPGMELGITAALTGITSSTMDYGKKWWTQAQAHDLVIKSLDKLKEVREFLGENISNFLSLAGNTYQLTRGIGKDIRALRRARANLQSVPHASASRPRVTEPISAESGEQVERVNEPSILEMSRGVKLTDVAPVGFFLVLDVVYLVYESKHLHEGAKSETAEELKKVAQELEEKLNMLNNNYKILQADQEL
Assay: MultiTox-Fluor Multiplex Cytotoxicity Assay, tet-inducible APOL1 G1 T-REx-HEK293 cells
Assay type: cell-based
Set-up: expressed in transfected cells; host or cells: T-REx HEK293, clone G1 DC3.25 (pAAVS1-Puro-APOL1 G1)
Settings: for IC90: HEK293, Multi-Tox Assay, APOL1 variant (G0/G1/G2) of the HEK293 cells not given, read-out: Multi-Tox Assay IC90; for Multi-Tox Assay Max Activity (%): APOL1 variant not given
How it was run: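 Over 24 h at 37 °C, compounds (10-point 3-fold series from 10 µM, duplicate) were co-incubated with 50 ng/mL tetracycline inducing APOL1 G1 in T-REx-HEK293 cells. Viability/cytotoxicity measured by MultiTox-Fluor as dead-to-live fluorescence ratio, expressed as percent of control between uninduced and induced wells and fitted.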

SMILES | IC90 | Multi-Tox Assay Max Activity (%)
C[C@H]1C[C@@]2(C[C@@H](c3cn(Cc4cccc(CO)c4)nn3)N1)OC[C@@H](O)c1cc(Cl)sc12 [Compound 271] | 50 to 500 nM | 97.0%
Cc1nnc(Cn2cc([C@@H]3C[C@]4(C[C@H](C)N3)OC[C@@H](O)c3cc(Cl)sc34)nn2)[nH]1 [Compound 272] | > 500 nM | 95.0%
C[C@H]1C[C@@]2(C[C@@H](c3cn(CCC4CCCOC4)nn3)N1)OC[C@@H](O)c1cc(Cl)sc12 (stereo partly shown) [Compound 273] | 50 to 500 nM | 101.0%
Cc1ccnn1CCn1cc([C@@H]2C[C@]3(C[C@H](C)N2)OC[C@@H](O)c2cc(Cl)sc23)nn1 [Compound 274] | 50 to 500 nM | 97.0%
C[C@H]1C[C@@]2(C[C@@H](c3cn(Cc4ccc(O)nc4)nn3)N1)OC[C@@H](O)c1cc(Cl)sc12 [Compound 275] | > 500 nM | 94.0%
C[C@H]1C[C@@]2(C[C@@H](c3cn(Cc4cnccn4)nn3)N1)OC[C@@H](O)c1cc(Cl)sc12 [Compound 276] | 50 to 500 nM | 100.0%
Cc1ncc(Cn2cc([C@@H]3C[C@]4(C[C@H](C)N3)OC[C@@H](O)c3cc(Cl)sc34)nn2)cn1 [Compound 277] | 50 to 500 nM | 100.0%
COc1cccc(Cn2cc([C@@H]3C[C@]4(C[C@H](C)N3)OC[C@@H](O)c3cc(Cl)sc34)nn2)c1 [Compound 278] | 50 to 500 nM | 100.0%
C[C@H]1C[C@@]2(C[C@@H](c3cn(Cc4cccc(O)c4)nn3)N1)OC[C@@H](O)c1cc(Cl)sc12 [Compound 279] | 50 to 500 nM | 97.0%
C[C@H]1C[C@@]2(C[C@@H](c3cn(Cc4cccnn4)nn3)N1)OC[C@@H](O)c1cc(Cl)sc12 [Compound 280] | 50 to 500 nM | 
C[C@H]1C[C@@]2(C[C@@H](c3cn(CC(O)c4ccccc4)nn3)N1)OC[C@@H](O)c1cc(Cl)sc12 (stereo partly shown) [Compound 281] | 50 to 500 nM | 
COCCn1cc([C@@H]2C[C@]3(C[C@H](C)N2)OC[C@@H](O)c2cc(Cl)sc23)nn1 [Compound 282] | 50 to 500 nM | 
C[C@H]1C[C@@]2(C[C@@H](c3cn(CC(F)F)nn3)N1)OC[C@@H](O)c1cc(Cl)sc12 [Compound 283] | 50 to 500 nM | 101.0%
CCC(O)Cn1cc([C@@H]2C[C@]3(C[C@H](C)N2)OC[C@@H](O)c2cc(Cl)sc23)nn1 (stereo partly shown) [Compound 284] | 50 to 500 nM | 101.0%
Cc1c(Cn2cc([C@@H]3C[C@]4(C[C@H](C)N3)OC[C@@H](O)c3cc(Cl)sc34)nn2)cnn1C [Compound 285] | 50 to 500 nM | 98.0%
C[C@H]1C[C@@]2(C[C@@H](c3cn(CCC#N)nn3)N1)OC[C@@H](O)c1cc(Cl)sc12 [Compound 286] | 50 to 500 nM | 98.0%
CC(C)N1CC(Cn2cc([C@@H]3C[C@]4(C[C@H](C)N3)OC[C@@H](O)c3cc(Cl)sc34)nn2)CC1=O (stereo partly shown) [Compound 287] | 50 to 500 nM | 96.0%
C[C@H]1C[C@@]2(C[C@@H](c3cn(CCC(N)=O)nn3)N1)OC[C@@H](O)c1cc(Cl)sc12 [Compound 288] | 50 to 500 nM | 97.0%
C[C@H]1C[C@@]2(C[C@@H](c3cn(CC4(F)CCOCC4)nn3)N1)OC[C@@H](O)c1cc(Cl)sc12 [Compound 289] | > 500 nM | 83.0%
CCn1cc(Cn2cc([C@@H]3C[C@]4(C[C@H](C)N3)OC[C@@H](O)c3cc(Cl)sc34)nn2)cn1 [Compound 290] | 50 to 500 nM | 
C[C@H]1C[C@@]2(C[C@@H](c3cn(Cc4cocn4)nn3)N1)OC[C@@H](O)c1cc(Cl)sc12 [Compound 291] | 50 to 500 nM | 100.0%
C[C@H]1C[C@@]2(C[C@@H](c3cn(Cc4ccccn4)nn3)N1)OC[C@@H](O)c1cc(Cl)sc12 [Compound 292] | 50 to 500 nM | 
COc1cc(F)cc(Cn2cc([C@@H]3C[C@]4(C[C@H](C)N3)OC[C@@H](O)c3cc(Cl)sc34)nn2)c1 [Compound 293] | < 50 nM | 100.0%
Cc1ccc(Cn2cc([C@@H]3C[C@]4(C[C@H](C)N3)OC[C@@H](O)c3cc(Cl)sc34)nn2)nc1 [Compound 294] | 50 to 500 nM | 100.0%
COc1ccc(Cn2cc([C@@H]3C[C@]4(C[C@H](C)N3)OC[C@@H](O)c3cc(Cl)sc34)nn2)cc1 [Compound 295] | 50 to 500 nM | 
Cc1cc(Cn2cc([C@@H]3C[C@]4(C[C@H](C)N3)OC[C@@H](O)c3cc(Cl)sc34)nn2)ccn1 [Compound 296] | 50 to 500 nM | 

SMILES | IC90 | Multi-Tox Assay Max Activity (%)
Cc1nc(Cn2cc([C@@H]3C[C@]4(C[C@H](C)N3)OC[C@@H](O)c3cc(Cl)sc34)nn2)oc1C [Compound 297] | 50 to 500 nM | 
C[C@H]1C[C@@]2(C[C@@H](c3cn(Cc4ncc(F)cc4F)nn3)N1)OC[C@@H](O)c1cc(Cl)sc12 [Compound 298] | > 500 nM | 95.0%
C[C@H]1C[C@@]2(C[C@@H](c3cn(CCOc4ccccc4F)nn3)N1)OC[C@@H](O)c1cc(Cl)sc12 [Compound 301] | < 50 nM | 
C[C@H]1C[C@@]2(C[C@@H](c3cn(Cc4ccc(O)cc4)nn3)N1)OCC(F)(F)c1cc(Cl)sc12 [Compound 302] | 50 to 500 nM | 94.0%
Cc1cccc(OCC(O)Cn2cc([C@@H]3C[C@]4(C[C@H](C)N3)OCC(F)(F)c3cc(Cl)sc34)nn2)c1 (stereo partly shown) [Compound 303] | 50 to 500 nM | 
Cc1ccccc1C(O)Cn1cc([C@@H]2C[C@]3(C[C@H](C)N2)OCC(F)(F)c2cc(Cl)sc23)nn1 (stereo partly shown) [Compound 304] | 50 to 500 nM | 
C[C@H]1C[C@@]2(C[C@@H](c3cn(CCc4ccncn4)nn3)N1)OCC(F)(F)c1cc(Cl)sc12 [Compound 305] | 50 to 500 nM | 100.0%
CC(CO)CCn1cc([C@@H]2C[C@]3(C[C@H](C)N2)OCC(F)(F)c2cc(Cl)sc23)nn1 (stereo partly shown) [Compound 306] | > 500 nM | 
C[C@H]1C[C@@]2(C[C@@H](c3cn(CC4CCS(=O)(=O)C4)nn3)N1)OCC(F)(F)c1cc(Cl)sc12 (stereo partly shown) [Compound 307] | 50 to 500 nM | 
C[C@H]1C[C@@]2(C[C@@H](c3cn(Cc4ccc(OC5CCOCC5)cc4)nn3)N1)OCC(F)(F)c1cc(Cl)sc12 [Compound 308] | > 500 nM | 95.0%
C[C@H]1C[C@@]2(C[C@@H](c3cn(CC4CCOCC4)nn3)N1)OCC(F)(F)c1cc(Cl)sc12 [Compound 309] | 50 to 500 nM | 97.0%
C[C@H]1C[C@@]2(C[C@@H](c3cn(Cc4cccc5c4OCCO5)nn3)N1)OCC(F)(F)c1cc(Cl)sc12 [Compound 310] | > 500 nM | 94.0%
C[C@H]1C[C@@]2(C[C@@H](c3cn(CC4CCOC4)nn3)N1)OCC(F)(F)c1cc(Cl)sc12 (stereo partly shown) [Compound 311] | 50 to 500 nM | 
C[C@H]1C[C@@]2(C[C@@H](c3cn(Cc4cccc(CO)c4)nn3)N1)OCC(F)(F)c1cc(Cl)sc12 [Compound 313] | 50 to 500 nM | 98.0%
C[C@H]1C[C@@]2(C[C@@H](c3cn(CCC4CCCOC4)nn3)N1)OCC(F)(F)c1cc(Cl)sc12 (stereo partly shown) [Compound 314] | < 50 nM | 
Cc1ccnn1CCn1cc([C@@H]2C[C@]3(C[C@H](C)N2)OCC(F)(F)c2cc(Cl)sc23)nn1 [Compound 315] | 50 to 500 nM | 98.0%
C[C@H]1C[C@@]2(C[C@@H](c3cn(Cc4ccc(O)nc4)nn3)N1)OCC(F)(F)c1cc(Cl)sc12 [Compound 316] | > 500 nM | 95.0%
C[C@H]1C[C@@]2(C[C@@H](c3cn(Cc4cnccn4)nn3)N1)OCC(F)(F)c1cc(Cl)sc12 [Compound 317] | 50 to 500 nM | 98.0%
Cc1ncc(Cn2cc([C@@H]3C[C@]4(C[C@H](C)N3)OCC(F)(F)c3cc(Cl)sc34)nn2)cn1 [Compound 318] | < 50 nM | 
COc1cccc(Cn2cc([C@@H]3C[C@]4(C[C@H](C)N3)OCC(F)(F)c3cc(Cl)sc34)nn2)c1 [Compound 319] | 50 to 500 nM | 95.0%
C[C@H]1C[C@@]2(C[C@@H](c3cn(Cc4cccc(O)c4)nn3)N1)OCC(F)(F)c1cc(Cl)sc12 [Compound 320] | > 500 nM | 95.0%
C[C@H]1C[C@@]2(C[C@@H](c3cn(Cc4cccnn4)nn3)N1)OCC(F)(F)c1cc(Cl)sc12 [Compound 321] | 50 to 500 nM | 
C[C@H]1C[C@@]2(C[C@@H](c3cn(CC(O)c4ccccc4)nn3)N1)OCC(F)(F)c1cc(Cl)sc12 (stereo partly shown) [Compound 322] | 50 to 500 nM | 97.0%
COCCn1cc([C@@H]2C[C@]3(C[C@H](C)N2)OCC(F)(F)c2cc(Cl)sc23)nn1 [Compound 323] | 50 to 500 nM | 100.0%
C[C@H]1C[C@@]2(C[C@@H](c3cn(CC(F)F)nn3)N1)OCC(F)(F)c1cc(Cl)sc12 [Compound 324] | > 500 nM | 96.0%
